Laboratory results published in patent US20080306275A1, “NOVEL HETEROARYL DERIVATIVE” (Danippon Sumitomo Pharma Co., Ltd., priority 2003, published 2008).
Where a name gives a salt, the structure may show the parent alone.

Legend:
human PPARα = target: T1, human PPARα (Homo sapiens, UniProt Q07869); assay: GAL4-PPARα luciferase reporter assay in COS-1 cells; type: cell-based; details: relative luciferase activity, vehicle (DMSO) control regarded as 1, 24 hours
T1 construct: human PPARα (including amino acid residues 167-468); expressed in transfected cells; host or cells: COS-1
T1 sequence (Q07869 167-468): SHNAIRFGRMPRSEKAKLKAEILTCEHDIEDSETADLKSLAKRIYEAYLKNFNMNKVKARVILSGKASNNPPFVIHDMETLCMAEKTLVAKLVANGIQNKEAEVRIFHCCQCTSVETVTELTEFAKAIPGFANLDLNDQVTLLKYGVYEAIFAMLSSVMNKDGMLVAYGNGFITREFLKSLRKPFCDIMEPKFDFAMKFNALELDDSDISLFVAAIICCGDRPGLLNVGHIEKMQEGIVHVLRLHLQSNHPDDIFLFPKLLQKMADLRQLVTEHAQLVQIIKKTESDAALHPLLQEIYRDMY
Source text: (§1) By inserting a gene fragment encoding the ligand binding domain of human PPARα (including amino acid residues 167-468) or a gene fragment encoding the ligand binding domain of human PPARγ (including amino acids residue 204-505) into a multicloning site of expressing vector pM containing DNA binding domain of yeast GAL4 protein (Clonetech), a vector plasmid expressing a fused protein of GAL4 protein DNA binding domain and human PPARα or γ ligand binding domain.
(§2) As a reporter plasmid, pGL3-Basic Vector containing firefly luciferase gene (Promega Corporation) was used wherein Gal4-responsive sequence UAS and rabbit β-globin promoter were inserted.
(§3) For the modification of genetic transformation efficiency, a plasmid containing lacZ gene, pβgal control (Clonetech), was used.
(§4) COS-1 cells were cultured in the phenol red free Dulbecco's Modified Eagles Medium (DMEM) (Gibco) supplemented with 5% activated carbon/dextran stripped fetal bovine serum at 37° C. with 5% carbon dioxide. The COS-1 cells were plated at a concentration of 5×10^4 cells/well into a 24-well plate, and the plate was incubated overnight. The medium was replaced with a fresh medium supplemented without 5% activated carbon/dextran treated fetal bovine serum. Further, the cells were transfected using Lipofectamine plus reagent (Gibco) with plasmid GAL4-PPARα- or γ-expressing plasmid (5 ng), the reporter plasmid (50 ng), pβgal control (350 ng) per well. After incubation for 4 hours, the medium was changed with a fresh medium supplemented with 5% activated carbon/dextran treated fetal bovine serum. Then, the compound of the present invention was added thereto in such an amount that the final concentration thereof is 1 μM or 10 μM. After the cultivation for 24 hours, the cells were lysed with a solution for cell lysis accompanied to the Luciferase Assay System (Promega Corporation). The luciferase activity therein was measured by a luminometer using the reagent for measuring luciferase which was also accompanied to said System. The β-galactosidase activity was measured using a β-galactosidase enzyme assay system (Promega Corporation) to correct the generic transfection efficiency.
(§5) The PPARα- or γ-agonistic activity was expressed as a relative activity where the luciferase activity in the well to which the vehicle (DMSO) was added as control was regarded as 1.

human PPARγ = target: T2, human PPARγ (Homo sapiens, UniProt P37231); assay: GAL4-PPARγ luciferase reporter assay in COS-1 cells; type: cell-based; details: relative luciferase activity, vehicle (DMSO) control regarded as 1, 24 hours
T2 construct: human PPARγ (including amino acids residue 204-505); expressed in transfected cells; host or cells: COS-1
T2 sequence (P37231 204-505): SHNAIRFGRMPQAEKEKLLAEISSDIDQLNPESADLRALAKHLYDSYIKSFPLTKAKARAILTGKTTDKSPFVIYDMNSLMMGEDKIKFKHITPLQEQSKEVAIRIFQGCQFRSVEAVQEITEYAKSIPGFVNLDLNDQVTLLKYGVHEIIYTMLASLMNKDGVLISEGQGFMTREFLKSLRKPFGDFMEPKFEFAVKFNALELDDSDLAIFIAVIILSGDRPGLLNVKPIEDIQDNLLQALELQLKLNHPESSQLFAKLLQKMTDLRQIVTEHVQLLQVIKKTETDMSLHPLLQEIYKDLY
Source text: as §1, §2, §3, §4, §5

male db/db mice = assay: Hypoglycemic activity in db/db mice; type: in vivo; details: 30 mg/kg orally once a day for 2 weeks, blood glucose level on the last day
Protocol: The test compounds as disclosed in Examples were dissolved or suspended in a 0.5% carbomethyl cellulose solution, and orally administered to male db/db mice (7 to 8 weeks old) at a final dose of 30 mg/kg once a day for 2 weeks. On the last day, the blood was taken at the tail vein, and immediately thereafter, perchloric acid was added for removing proteins, and the blood glucose level was measured by Glucose CII Test Wako (Wako Pure Industries, Ltd.).
In addition, the hypoglycemic activity was calculated by the following equation.

Compound | PPARα-agonistic activity (10 μM) (human PPARα) | PPARγ-agonistic activity (10 μM) (human PPARγ) | Hypoglycemic Activity (%) (male db/db mice)
Cc1ccc(C(=O)c2cccn2C/C=C/c2cccc(COC(C(=O)O)c3ccccc3)c2)cc1 (stereo not shown) [Example 2B, [(3-{(1E)-3-[2-(4-Methylbenzoyl)-1H-pyrrol-1-yl]prop-1-en-1-yl}benzyl)oxy]-(phenyl)acetic acid] | 7.8 | 5.6 | 
Cc1ccc(C(=O)c2cccn2C/C=C/c2ccc(CO[C@H](C)C(=O)O)cc2)cc1 [Example 6B, (2R)-2-[(4-{(1E)-3-[2-(4-Methylbenzoyl)-1H-pyrrol-1-yl]prop-1-ene-1-yl}benzyl)-oxy]propionic acid] | 10.1 | 5.5 | 63.3
Cc1ccc(C(=O)c2cccn2C/C=C/c2ccc(CO[C@@H](C)C(=O)O)cc2)cc1 [Example 11, (2S)-2-[(4-{(1E)-3-[2-(4-Methylbenzoyl)-1H-pyrrol-1-yl]prop-1-en-1-yl}benzyl)-oxy]propionic acid 1,3-dihydroxy-2-(hydroxymethyl)propan-2-aminium salt] |  |  | 64.4
Cc1ccc(C(=O)c2nccn2C/C=C/c2ccc(CO[C@H](C)C(=O)O)cc2)cc1 [Example 27] |  |  | 51.0
COc1ccc(C(=O)c2nccn2C/C=C/c2ccc(CO[C@H](C)C(=O)O)cc2)cc1 [Example 29] |  |  | 43.0
Cc1ccc(C(=O)c2nc3ccccc3n2C/C=C/c2ccc(COC(C)(C)C(=O)O)cc2)cc1 [Example 38] |  |  | 18.2
Cc1ccc(C(=O)c2cccn2C/C=C/c2ccc(COCc3nnn[nH]3)cc2)cc1 [compound 51] | 17.7 | 8.9 | 

Second part, led by results:

PPARα-agonistic activity (10 μM) (human PPARα) | PPARγ-agonistic activity (10 μM) (human PPARγ) | Compound | Hypoglycemic Activity (%) (male db/db mice)
8.0 | 4.7 | Cc1ccc(C(=O)c2cccn2C/C=C/c2cccc(COC(C)(C)C(=O)O)c2)cc1 [Example 1B, 2-Methyl-2-[(3-{(1E)-3-[2-(4-methylbenzoyl)-1H-pyrrol-1-yl]prop-1-en-1-yl}-benzyl)oxy]propionic acid] | 21.2
12.6 | 7.5 | Cc1ccc(C(=O)c2cccn2C/C=C/c2ccc(COC(C)(C)C(=O)O)cc2)cc1 [Example 3B, 2-Methyl-2-[(4-{(1E)-3-[2-(4-methylbenzoyl)-1H-pyrrol-1-yl]prop-1-en-1-yl}-benzyl)oxy]propionic acid] | 17.8
12.6 | 3.4 | Cc1ccc(C(=O)c2cccn2C/C=C/c2cccc(COCC(=O)O)c2)cc1 [Example 4, [(3-{(1E)-3-[2-(4-Methylbenzoyl)-1H-pyrrol-1-yl]prop-1-en-1-yl}benzyl)oxy]acetic acid] | 
11.6 | 5.4 | Cc1ccc(C(=O)c2cccn2C/C=C/c2cccc(CO[C@H](C)C(=O)O)c2)cc1 [Example 5B, (2R)-2-[(3-{(1E)-3-[2-(4-Methylbenzoyl)-1H-pyrrol-1-yl]prop-1-en-1-yl}benzyl)-oxy]propionic acid] | 
10.8 | 2.9 | Cc1ccc(C(=O)c2cccn2C/C=C/c2cccc(CO[C@@H](C)C(=O)O)c2)cc1 [Example 7B, (2S)-2-[(3-{(1E)-3-[2-(4-Methylbenzoyl)-1H-pyrrol-1-yl]prop-1-en-1-yl}benzyl)-oxy]propionic acid] | 
8.6 | 5.3 | CCC(OCc1cccc(/C=C/Cn2cccc2C(=O)c2ccc(C)cc2)c1)C(=O)O (stereo not shown) [Example 9B, 2-[(3-{(1E)-3-[2-(4-methylbenzoyl)-1H-pyrrol-1-yl]prop-1-en-1-yl}benzyl)oxy]-butyric acid] | 
